The subject of the experiment is NKT cell hybridomas. Briefly: IL-2 production by NKT cell hybridomas cultured with BMDCs (ELISA). It counts as cell-based, mouse. As to the method: FIGS. 4A-4C illustrate that α-GalCerBf binds CD1d and activates murine NKT cells in vitro. FIG. 4A: NKT cell hybridomas (see Example 4) were stained with anti-CD3 antibodies, and empty mCD1d tetramers or CD1d tetramers were loaded with α-GalCerBf or KRN7000. Flow cytometry plots representative of three independent experiments are shown. FIG. 4B: Hybridomas were cultured with BMDCs (bone marrow-derived dendritic cells) pre-pulsed with LPS or LPS+α-GalCerBf in the presence of control Ig or anti-CD1d blocking antibodies. IL-2 secretion was measured in supernatants 16 hr later. Data are representative of three independent experiments. FIG. 4C: Liver mononuclear cells were cultured with splenocytes plus increasing amounts of α-GalCerBf in the presence or absence of anti-CD1d blocking antibodies. IFN-γ secretion was measured in supernatants on day 5. Data are representative of three independent experiments.
BMDCs and NKT hybridomas were cultured at a 3:1 hybridoma:BMDC ratio and the indicated doses of KRN7000 or α-GalCerBf in the presence of 1 μg/ml LPS. Supernatants were harvested after 24 hrs, and IL-2 production was measured by ELISA. […]
NKT hybridomas were stimulated in dose titration experiments. […] Supernatants were harvested after 24 hr, and IL-2 production was measured by ELISA. […] Supernatants were harvested after 16-18 hr and IL-2 production was measured by ELISA.
(In general: In an ELISA, binding on a coated surface is turned into a signal by an enzyme label.)

These results are taken from US10227290B2, “Glycosphingolipids for use in modulating immune responses” (The Regents of the University of California, priority 2012, dated 2019).

In the case of `CCCCCCCCCCCCCCCCCCCCCCCCCC(=O)N[C@@H](CO[C@H]1O[C@H](CO)[C@H](O)[C@H](O)[C@H]1O)[C@H](O)[C@H](O)CCCCCCCCCCCCCC` [KRN7000], the “Sensitivity of hybridoma to KRN7000 relative to α-GalCerBf (IL-2)” value is given as 30 fold (hybridoma 1.2) and 80 fold (hybridoma 1.4).
